Experimental data: ChEMBL document CHEMBL1201862, “PubChem BioAssay data set” (2004)
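Results reflect a 48-hour exposure of cells in 96-well plates to compound at five concentrations. GI50: concentration for 50% inhibition of growth.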 Activity calls are given as the source filed them. Rule as the data show it: active = GI50 up to about 1.1 µM and inactive = higher.

Experiments:
Assay in all cases: NCI tumour cell line growth inhibition, 48 h
M19-MEL = test system: M19-MEL
CAKI-1 = test system: CAKI-1
HOP-18 = test system: HOP-18
SK-OV-3 = test system: SK-OV-3
EKVX = test system: EKVX
DLD-1 = test system: DLD-1
KM12 = test system: KM12
HT-29 = test system: HT-29
NCI-H226 = test system: NCI-H226
IGROV-1 = test system: IGROV-1
CCRF-CEM = test system: CCRF-CEM
OVCAR-8 = test system: OVCAR-8
SK-MEL-2 = test system: SK-MEL-2
A549 = test system: A549
DMS-273 = test system: DMS-273
SK-MEL-5 = test system: SK-MEL-5
RXF 393 = test system: RXF 393
LOX IMVI = test system: LOX IMVI
U-251 = test system: U-251
HOP-92 = test system: HOP-92
SNB-78 = test system: SNB-78
HCT-116 = test system: HCT-116
OVCAR-5 = test system: OVCAR-5
XF498 = test system: XF498
Malme-3M = test system: Malme-3M
HCC 2998 = test system: HCC 2998
NCI/ADR-RES = test system: NCI/ADR-RES
HOP-62 = test system: HOP-62
SF-295 = test system: SF-295
A498 = test system: A498
NCI-H460 = test system: NCI-H460
DMS-114 = test system: DMS-114
OVCAR-3 = test system: OVCAR-3
RPMI-8226 = test system: RPMI-8226
MOLT-4 = test system: MOLT-4
NCI-H23 = test system: NCI-H23
SNB-19 = test system: SNB-19
SNB-75 = test system: SNB-75
K562 = test system: K562
SF-268 = test system: SF-268
KM-20L2 = test system: KM-20L2
SK-MEL-28 = test system: SK-MEL-28
HL-60 = test system: HL-60
UO-31 = test system: UO-31
UACC-62 = test system: UACC-62
SN12C = test system: SN12C
UACC-257 = test system: UACC-257
SW-620 = test system: SW-620
NCI-H522 = test system: NCI-H522
HCT-15 = test system: HCT-15
SF-539 = test system: SF-539
MCF7 = test system: MCF7
COLO 205 = test system: COLO 205
OVCAR-4 = test system: OVCAR-4
MDA-MB-435 = test system: MDA-MB-435
T47D = test system: T47D
DU-145 = test system: DU-145
ACHN = test system: ACHN
786-0 = test system: 786-0
TK-10 = test system: TK-10
BT-549 = test system: BT-549
MDA-N = test system: MDA-N
SR = test system: SR
MDA-MB-231 = test system: MDA-MB-231
PC-3 = test system: PC-3
M14 = test system: M14
Hs-578T = test system: Hs-578T

CCN(CC)c1c(C)c(C(=O)OC)nn1-c1ccccc1
GI50 (M19-MEL): > 66.2 µM (inactive)
GI50 (CAKI-1): > 44.7 µM (inactive)
GI50 (HOP-18): > 100 µM (inactive)
GI50 (SK-OV-3): > 100 µM (inactive)
GI50 (EKVX): > 81.1 µM (inactive)
GI50 (DLD-1): > 100 µM (inactive)
GI50 (KM12): > 85.3 µM (inactive)
GI50 (HT-29): 70.3 µM (inactive)
GI50 (NCI-H226): > 77.1 µM (inactive)
GI50 (IGROV-1): > 100 µM (inactive)
GI50 (CCRF-CEM): 63.1 µM (inactive)
GI50 (OVCAR-8): > 100 µM (inactive)
GI50 (SK-MEL-2): > 89.7 µM (inactive)
GI50 (A549): 97.5 µM (inactive)
GI50 (DMS-273): > 100 µM (inactive)
GI50 (SK-MEL-5): 32.8 µM (inactive)
GI50 (RXF 393): 33.3 µM (inactive)
GI50 (LOX IMVI): 86.5 µM (inactive)
GI50 (U-251): 61.1 µM (inactive)
GI50 (HOP-92): 71 µM (inactive)
GI50 (SNB-78): > 100 µM (inactive)
GI50 (HCT-116): 89.1 µM (inactive)
GI50 (OVCAR-5): > 100 µM (inactive)
GI50 (XF498): > 34.5 µM (inactive)
GI50 (Malme-3M): > 96.6 µM (inactive)
GI50 (HCC 2998): > 43.7 µM (inactive)
GI50 (NCI/ADR-RES): 36.4 µM (inactive)
GI50 (HOP-62): > 100 µM (inactive)
GI50 (SF-295): > 83.6 µM (inactive)
GI50 (A498): > 85.1 µM (inactive)
GI50 (NCI-H460): > 100 µM (inactive)
GI50 (DMS-114): 38.7 µM (inactive)
GI50 (OVCAR-3): 60.5 µM (inactive)
GI50 (RPMI-8226): 23.2 µM (inactive)
GI50 (MOLT-4): 43.1 µM (inactive)
GI50 (NCI-H23): 33.6 µM (inactive)
GI50 (SNB-19): > 72.1 µM (inactive)
GI50 (SNB-75): > 100 µM (inactive)
GI50 (K562): 36.9 µM (inactive)
GI50 (SF-268): 81.3 µM (inactive)
GI50 (KM-20L2): > 100 µM (inactive)
GI50 (SK-MEL-28): > 100 µM (inactive)
GI50 (HL-60): 35.2 µM (inactive)
GI50 (UO-31): 33 µM (inactive)
GI50 (UACC-62): > 100 µM (inactive)
GI50 (SN12C): > 100 µM (inactive)
GI50 (UACC-257): 31.2 µM (inactive)
GI50 (SW-620): > 100 µM (inactive)
GI50 (NCI-H522): 63.8 µM (inactive)
GI50 (HCT-15): > 100 µM
GI50 (SF-539): > 100 µM (inactive)
GI50 (MCF7): 80.4 µM (inactive)
GI50 (COLO 205): > 100 µM (inactive)
GI50 (OVCAR-4): > 100 µM (inactive)

COc1ccc2c(c1[N+](=O)[O-])CC[C@@H]1[C@@H]2CC[C@]2(C)C(=O)CC[C@@H]12
GI50 (M19-MEL): > 25 µM (inactive)
GI50 (CAKI-1): > 25 µM (inactive)
GI50 (HOP-18): > 25 µM (inactive)
GI50 (MDA-MB-435): > 25 µM (inactive)
GI50 (SK-OV-3): 7.41 µM (inactive)
GI50 (EKVX): > 25 µM (inactive)
GI50 (DLD-1): > 25 µM (inactive)
GI50 (KM12): > 25 µM (inactive)
GI50 (HT-29): > 25 µM (inactive)
GI50 (NCI-H226): 23.1 µM (inactive)
GI50 (IGROV-1): > 18 µM (inactive)
GI50 (CCRF-CEM): 9.06 µM (inactive)
GI50 (OVCAR-8): > 25 µM (inactive)
GI50 (SK-MEL-2): 14.8 µM (inactive)
GI50 (A549): > 25 µM (inactive)
GI50 (DMS-273): > 25 µM (inactive)
GI50 (SK-MEL-5): > 25 µM (inactive)
GI50 (T47D): > 25 µM (inactive)
GI50 (RXF 393): > 25 µM (inactive)
GI50 (LOX IMVI): > 25 µM (inactive)
GI50 (DU-145): > 25 µM (inactive)
GI50 (U-251): > 25 µM (inactive)
GI50 (HOP-92): 21.4 µM (inactive)
GI50 (SNB-78): 24.7 µM (inactive)
GI50 (HCT-116): 20.3 µM (inactive)
GI50 (OVCAR-5): > 25 µM (inactive)
GI50 (XF498): 20.4 µM (inactive)
GI50 (Malme-3M): 17.2 µM (inactive)
GI50 (HCC 2998): > 1000 µM (inactive)
GI50 (NCI/ADR-RES): > 25 µM (inactive)
GI50 (HOP-62): > 6.71 µM (inactive)
GI50 (SF-295): > 25 µM (inactive)
GI50 (A498): > 25 µM (inactive)
GI50 (NCI-H460): 24.9 µM (inactive)
GI50 (DMS-114): 18.4 µM (inactive)
GI50 (ACHN): > 25 µM (inactive)
GI50 (OVCAR-3): > 25 µM (inactive)
GI50 (RPMI-8226): > 25 µM (inactive)
GI50 (MOLT-4): > 25 µM (inactive)
GI50 (786-0): 210 µM (inactive)
GI50 (NCI-H23): > 25 µM (inactive)
GI50 (SNB-19): 24.2 µM (inactive)
GI50 (SNB-75): > 25 µM (inactive)
GI50 (TK-10): > 25 µM (inactive)
GI50 (BT-549): > 25 µM (inactive)
GI50 (MDA-N): > 925 µM (inactive)
GI50 (K562): 24.9 µM (inactive)
GI50 (SR): > 1000 µM (inactive)
GI50 (SF-268): > 25 µM (inactive)
GI50 (MDA-MB-231): > 25 µM (inactive)
GI50 (KM-20L2): > 25 µM (inactive)
GI50 (SK-MEL-28): 20.7 µM (inactive)
GI50 (PC-3): 22 µM (inactive)
GI50 (HL-60): 24.5 µM (inactive)
GI50 (UO-31): > 25 µM (inactive)
GI50 (UACC-62): 18.3 µM (inactive)
GI50 (SN12C): > 25 µM (inactive)
GI50 (UACC-257): > 25 µM (inactive)
GI50 (SW-620): > 25 µM (inactive)
GI50 (NCI-H522): > 25 µM (inactive)
GI50 (M14): > 25 µM (inactive)
GI50 (HCT-15): > 25 µM
GI50 (SF-539): > 25 µM (inactive)
GI50 (MCF7): > 25 µM (inactive)
GI50 (Hs-578T): 17.1 µM (inactive)
GI50 (COLO 205): 21.8 µM (inactive)
GI50 (OVCAR-4): 15.5 µM (inactive)

CCCCCCCCCCCCCCCCOCC(COP(=O)([O-])OCC[N+](C)(C)C)OCCCCCCCCCCCCCCCC (centres undefined)
GI50 (M19-MEL): > 100 µM (inactive)
GI50 (CAKI-1): > 100 µM (inactive)
GI50 (HOP-18): > 100 µM (inactive)
GI50 (SK-OV-3): > 100 µM (inactive)
GI50 (EKVX): > 100 µM (inactive)
GI50 (DLD-1): > 100 µM (inactive)
GI50 (KM12): > 100 µM (inactive)
GI50 (HT-29): > 100 µM (inactive)
GI50 (NCI-H226): > 100 µM (inactive)
GI50 (IGROV-1): > 100 µM (inactive)
GI50 (CCRF-CEM): > 100 µM (inactive)
GI50 (OVCAR-8): > 100 µM (inactive)
GI50 (SK-MEL-2): > 100 µM (inactive)
GI50 (A549): > 10 µM (inactive)
GI50 (DMS-273): > 100 µM (inactive)
GI50 (SK-MEL-5): > 100 µM (inactive)
GI50 (RXF 393): > 100 µM (inactive)
GI50 (LOX IMVI): > 100 µM (inactive)
GI50 (U-251): > 100 µM (inactive)
GI50 (HOP-92): > 100 µM (inactive)
GI50 (SNB-78): > 100 µM (inactive)
GI50 (HCT-116): > 100 µM (inactive)
GI50 (OVCAR-5): > 100 µM (inactive)
GI50 (XF498): > 100 µM (inactive)
GI50 (Malme-3M): > 100 µM (inactive)
GI50 (HCC 2998): > 100 µM (inactive)
GI50 (NCI/ADR-RES): > 92.9 µM (inactive)
GI50 (HOP-62): > 100 µM (inactive)
GI50 (SF-295): > 100 µM (inactive)
GI50 (A498): > 100 µM (inactive)
GI50 (NCI-H460): > 100 µM (inactive)
GI50 (DMS-114): > 100 µM (inactive)
GI50 (OVCAR-3): > 100 µM (inactive)
GI50 (RPMI-8226): > 100 µM (inactive)
GI50 (MOLT-4): > 100 µM (inactive)
GI50 (NCI-H23): > 100 µM (inactive)
GI50 (SNB-19): > 100 µM (inactive)
GI50 (SNB-75): > 100 µM (inactive)
GI50 (K562): > 100 µM (inactive)
GI50 (SF-268): > 100 µM (inactive)
GI50 (KM-20L2): > 100 µM (inactive)
GI50 (SK-MEL-28): > 100 µM (inactive)
GI50 (HL-60): > 100 µM (inactive)
GI50 (UO-31): > 100 µM (inactive)
GI50 (UACC-62): > 100 µM (inactive)
GI50 (SN12C): > 100 µM (inactive)
GI50 (UACC-257): > 100 µM (inactive)
GI50 (SW-620): > 100 µM (inactive)
GI50 (NCI-H522): > 100 µM (inactive)
GI50 (HCT-15): > 100 µM
GI50 (SF-539): > 100 µM (inactive)
GI50 (COLO 205): > 100 µM (inactive)
GI50 (OVCAR-4): > 100 µM (inactive)
